# Patent US5478928A, “2',3'-dideoxy-4'-thioribonucleosides and synthetic precursors thereof” (priority 1993, dated 1995)
# Read-outs that look alike come from different tables or passages of the source.
# Legend:
# [1] = tested on: CEM cells infected with HIV virus (HIV-1 isolates IIIB and/or RF); experiment: Inhibition of HIV cytopathogenic effects (CPE) in CEM cells (MTT); assay type: cell-based; conditions: for SI (selectivity index): TC25 divided by the ID50; for TAI (total antiviral index): area between the cytotoxicity and the antiviral curves; for IC50: Human immunodeficiency virus 1, IIIB, CCRF-CEM, read-out: IC50 (minimum drug concentration that inhibited CPE by 50%)
# Method: (§1) Compounds of the present invention are readily screened for anti-HIV activity by the following standard screening assay in CEM and MT2 cells.
# (§2) 1. Compound dilution and delivery to the plates. Test compounds are solubilized in the appropriate vehicle such as distilled water, DMSO, methyl alcohol, or other vehicle. The maximum solubility is determined as appropriate. Latex gloves, lab coats, and masks are used during all phases of the handling process to prevent exposure to potentially harmful agents. At highest solubility, the test compound is prepared and stored at -20° C. until used by the screening laboratory. The first dilution of each compound is made tube with medium to yield a concentration two-fold that of the highest test concentration. Sterile titer tubes are then used to make serial one half log dilutions of each compound. Following dilution, the diluted compound is added to the appropriate well of a 96-well microtiter plate. Up to 12 dilutions can be conveniently assayed in triplicate on a single plate with all appropriate controls, including cell control, virus control, toxicity control, drug color control, medium control and plastic control. When testing includes only six dilutions, two drugs can be assayed on a single microtiter plate. The test compounds are added to the plate in a final volume of 100 microliters.
# (§3) 2. Cells and virus. During the time that the test compound dilutions are prepared, cells are washed and counted. Viability is monitored by trypan blue dye exclusion and assays are not performed if the viability falls below 90%. Cells are maintained in an exponential growth phase and are split 1:2 on the day prior to assay to assure adequate growth rate. For the primary screen, the cell line utilized is CEM cells. […] However, both cell lines are available and being used at all times and can be substituted or used in addition to CEM cells as requested. Unless otherwise indicated, the medium is phenol red-free RPMI 1640 with 10% heat-inactivated fetal calf serum (FBS), glutamine and antibiotics. Cells are propagated at 37° C. in an atmosphere of 5% CO2 in air. The virus employed for this work is HIV-1 isolates IIIB and/or RF prepared by the acute infection process as follows: Briefly, virus infected cells are pelleted on a daily basis beginning at three days postinfection until the virus has killed all of the cells in the culture. Reverse transcriptase activity and p24 ELISA are used to identify pools with the greatest amount of virus. These 24-hour harvests are pooled, filtered and frozen at -90° C. Prior to use in the assay the virus is titered on all available cell lines in order to determine the amount of virus required in the assay. In general, pools produced by the acute virus method require the addition of one microliter of infectious virus per well resulting in the screening of drugs on a multiplicity of infection of 0.01. In this manner enough virus is prepared and frozen to complete over one thousand microtiter plates, allowing the testing of up to two thousand compounds from a single stock. […] Virus infection of the CEM cells is carried in a bulk infection process. The appropriate number of cells required to complete the assay are mixed with infectious virus in a conical centrifuge tube in a small total volume of 1-2 milliliters. Following a one hour incubation the infected cells are brought to the appropriate final concentration of 5×10^4 cells per milliliter with fresh tissue culture medium and 100 microliters are added to the appropriate experimental and virus control wells. Uninfected cells at the same concentration are plated for the toxicity controls and for the cell controls.
# (§4) 3. Evaluation of CPE-inhibition. Following the addition of cells and test compounds to the microtiter plate, the plate is incubated for 6 days at 37° C.
# [2] = tested on: CEM cells; experiment: Cytotoxicity (cell viability) in CEM cells
# Method: as §1, §2, §3, §4
# [3] = tested on: MT-2 cells infected with HIV virus (HIV-1 isolates IIIB and/or RF); experiment: Inhibition of HIV cytopathogenic effects (CPE) in MT-2 cells (MTT); assay type: cell-based; conditions: for IC50: Human immunodeficiency virus 1, IIIB; for SI (selectivity index): TC25 divided by the ID50; for TAI (total antiviral index): area between the cytotoxicity and the antiviral curves
# Method: as §1, §2, §3, §4
# [4] = tested on: MT-2 cells; experiment: Cytotoxicity (cell viability) in MT-2 cells
# Method: as §1, §2, §3, §4
# [5] = tested on: AIDS; conditions: cited from earlier work
# [6] = CEM cells, means of several experiments
# [7] = MT2, MT-2 cells, means of several experiments, read-out: IC50 (minimum drug concentration that inhibited CPE by 50%)
# [8] = MT-2 cells, means of several experiments
structure (smiles),measurement,setting,value
Cc1cn([C@H]2C[C@H](N=[N+]=[N-])[C@@H](CO)S2)c(=O)[nH]c1=O,SI (selectivity index),[1]; CEM cells,> 222.02
same,TAI (total antiviral index),[1]; CEM cells,> 60.15
same,IC50,[1]; [6],0.45 µg/mL
same,TC25 (minimum drug concentration that reduced cell viability by 25%),[2]; [6],> 100 µg/mL
"Nc1nc2c(ncn2[C@H]2CC[C@@H](CO)S2)c(=O)[nH]1 [4'-thio-2',3'-dideoxy-guanosine, 4'-Thio-2',3'-dideoxy-guanosine]",IC50,[3]; [7],98 µg/mL
same,SI (selectivity index),[3]; MT-2 cells,1.6
same,TAI (total antiviral index),[3]; MT-2 cells,11.0
same,TAI (total antiviral index),[1]; CEM cells,0.0
same,TC25 (minimum drug concentration that reduced cell viability by 25%),[2]; [6],> 100 µg/mL
same,TC25 (minimum drug concentration that reduced cell viability by 25%),[4]; [8],> 200 µg/mL
"Nc1ccn([C@H]2CC[C@@H](CO)S2)c(=O)n1 [4'-thio-2',3'-dideoxycytidine, 4'-Thio-2',3'-dideoxycytidine]",SI (selectivity index),[1]; CEM cells,> 100
same,TAI (total antiviral index),[1]; CEM cells,> 65
same,IC50,[1]; [6],1 µg/mL
same,TC25 (minimum drug concentration that reduced cell viability by 25%),[2]; [6],> 100 µg/mL
"OC[C@@H]1CC[C@H](n2cnc3c(O)ncnc32)S1 [4'-thio-2',3'-dideoxyinosine, 4'-Thio-2',3'-dideoxyinosine]",TAI (total antiviral index),[3]; MT-2 cells,> 4.0
same,TC25 (minimum drug concentration that reduced cell viability by 25%),[4]; [8],> 100 µg/mL
"Cc1cn([C@H]2CC[C@@H](CO)S2)c(=O)[nH]c1=O [4'-thio-3'-deoxythymidine, 4'-Thio-3'-deoxythymidine]",TAI (total antiviral index),[3]; MT-2 cells,> 4.0
same,TAI (total antiviral index),[1]; CEM cells,4.0
same,TC25 (minimum drug concentration that reduced cell viability by 25%),[2]; [6],> 150 µg/mL
same,TC25 (minimum drug concentration that reduced cell viability by 25%),[4]; [8],> 100 µg/mL
"Nc1ncnc2c1ncn2[C@H]1CC[C@@H](CO)S1 [4-'-thio-2'3'-dideoxyadenosine, 4'-Thio-2',3'-dideoxyadenosine]",IC50,[3]; [7],80 µg/mL
same,SI (selectivity index),[3]; MT-2 cells,1.3
same,TAI (total antiviral index),[3]; MT-2 cells,> 17
same,TC25 (minimum drug concentration that reduced cell viability by 25%),[4]; [8],> 100 µg/mL
"Nc1nc(N)c2ncn([C@H]3CC[C@@H](CO)S3)c2n1 [9-(4-Thio-2,3-dideoxy-D-ribofuranosyl)-2,6-diaminopurine]",SI (selectivity index),[1]; CEM cells,2.6
same,TAI (total antiviral index),[1]; CEM cells,21.0
same,IC50,[1]; [6],37 µg/mL
same,TC25 (minimum drug concentration that reduced cell viability by 25%),[2]; [6],97.0 µg/mL
"Nc1nc(Cl)nc2c1ncn2[C@H]1CC[C@@H](CO)S1 [9-(4-Thio-2,3-dideoxy-D-ribofuranosyl)-2-chloro-6-aminopurine]",TC25 (minimum drug concentration that reduced cell viability by 25%),[2]; [6],5.74 µg/mL
"OC[C@@H]1CC[C@H](n2cnc3c(Cl)ncnc32)S1 [9-(4-Thio-2,3-dideoxy-D-ribofuranosyl)-6-chloropurine]",TAI (total antiviral index),[3]; MT-2 cells,0.0
same,TC25 (minimum drug concentration that reduced cell viability by 25%),[4]; [8],21 µg/mL
"Cc1cn([C@H]2C[C@H](N=[N+]=[N-])[C@@H](CO)O2)c(=O)[nH]c1=O [AZT, 3'-azido-3'-deoxythymidine, reference compound]",IC50,"[3]; MT2, read-out: IC50 (minimum drug concentration that inhibited CPE by 50%)",0.14 µg/mL
same,SI (selectivity index),[3]; MT-2 cells,> 160
same,TAI (total antiviral index),[3]; MT-2 cells,> 82
same,potency for the treatment of AIDS,[5]; background,particularly potent
same,side effects,[5]; background,undesirable side effects
same,SI (selectivity index),[1]; CEM cells,> 313
same,TAI (total antiviral index),[1]; CEM cells,> 93
same,IC50,[1],< 0.03 µg/mL
same,TC25 (minimum drug concentration that reduced cell viability by 25%),[2]; [6],> 10 µg/mL
same,TC25 (minimum drug concentration that reduced cell viability by 25%),[4]; [8],9.3 µg/mL
"Nc1ccn([C@H]2CC[C@@H](CO)O2)c(=O)n1 [DDC, dideoxycytidine, reference compound]",IC50,[3]; [7],0.44 µg/mL
same,TAI (total antiviral index),[3]; MT-2 cells,> 52
same,side effects,[5],undesirable side effects
same,SI (selectivity index),[1]; CEM cells,120
same,TAI (total antiviral index),[1]; CEM cells,> 63
same,IC50,[1]; [6],0.05 µg/mL
same,TC25 (minimum drug concentration that reduced cell viability by 25%),[2]; human,5.3 µg/mL
same,TC25 (minimum drug concentration that reduced cell viability by 25%),[4]; human,> 9.8 µg/mL
"CNc1ncnc2c1ncn2[C@H]1CC[C@@H](CO)S1 [N^6 -Methyl-4'-thio-2',3'-dideoxyadenosine]",TAI (total antiviral index),[3]; MT-2 cells,1.0
same,TC25 (minimum drug concentration that reduced cell viability by 25%),[4]; [8],> 100 µg/mL
O=c1[nH]cnc2c1ncn2[C@H]1CC[C@@H](CO)O1 [dideoxyinosine],side effects,[5],undesirable side effects
